In US8399403B2, “Chemical linkers and conjugates thereof” (priority 2004, dated 2013):

Legend:
[1] = Rate of cyclization of 6-membered hydrazine linker in buffer; type: physicochemical; details: incubated in buffer at pH 7.4, assessed over time
Experimental: A duocarmycin analog conjugated to a dimethyl 6-membered hydrazine linker was incubated in buffer at pH 7.4 for 24 hours and the generation of cyclized product resulting from cyclization of the hydrazine linker, thereby releasing free duocarmycin analog, was assessed over time.
A duocarmycin analog conjugated to a gem-dimethyl 6-membered hydrazine linker was incubated in buffer at pH 7.4 and the generation of cyclized product resulting from cyclization of the hydrazine linker, thereby releasing free duocarmycin analog, was assessed over time.

[2] = test system: experimental animals; details: cited from earlier work
[3] = in vitro and in experimental animals; cited from earlier work

Row | SMILES | generation of cyclized product resulting from cyclization of the hydrazine linker (release of free duocarmycin analog) [1] | toxicity in experimental animals [2] | antitumor and antimicrobial activity [3]
1 | COC(=O)c1c(C)[nH]c2c(OC(=O)N(C)CC(=O)N(C)N)cc3c(c12)[C@H](CCl)CN3C(=O)c1cc2cc(OC)ccc2o1 | Minimal amounts of cyclized product were detected over 24 hours | – | –
2 | COC(=O)c1c(C)[nH]c2c(OC(=O)N(C)C(C)(C)C(=O)N(C)N)cc3c(c12)[C@H](CCl)CN3C(=O)c1cc2cc(OC)ccc2o1 | proceeding to completion within a few minutes | – | –
3 | COc1c(O)c2c(c3cc(C(=O)N4CCc5c4c(O)c(OC)c4[nH]c(C(=O)N6CC7CC78C6=CC(=O)c6[nH]cc(C)c68)cc54)[nH]c13)CCN2C(N)=O (stereo not shown) [CC-1065] | – | causes delayed death in experimental animals | potent antitumor and antimicrobial activity
